The values below come from BindingDB's records for doi:10.1007/s10822-022-00478-x (Roche Innovation Center Basel, F. Hoffmann-La Roche Ltd., 2022).

Each structure is given as a SMILES string.

In the assay the target is cAMP and cAMP-inhibited cGMP 3',5'-cyclic phosphodiesterase 10A (Homo sapiens, UniProt Q9Y233). Briefly: PDE10A assay. The procedure, abridged:
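Scintillation proximity readout of [3H]cGMP hydrolysis (50 nM final substrate, 15 min) by 2 ng/well human PDE10A after 15 min compound preincubation at RT, pH 7.5 with MgCl2. Four-parameter logistic fit gave IC50, reported as pIC50.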

The term IC50 denotes the concentration that inhibits the measured activity by half. Lower therefore signals greater potency in that assay. As for `COc1ccccc1-c1nc2n(c1Cl)CC[C@@H](NC(=O)c1c(C(=O)N3CCC3)cnn1C)C2` [Roche-Dataset for PDE10A, Compound 362], the IC50 worked out at 188 nM.

For `Cn1ncc(C(=O)N2CCC2)c1C(=O)Nc1cc(C2CCCCC2)n[nH]1` [Roche-Dataset for PDE10A, Compound 991], it took 9440 nM to reach half-maximal inhibition (IC50).

As to `Cc1ccc2nc(Cl)c(OCc3nc(-c4ccccc4)cn3C)nc2c1` [Roche-Dataset for PDE10A, Compound 540], the IC50 worked out at 5.06 nM.

In the case of `CCc1nc(CNC(=O)c2cnn(C)c2C(=O)Nc2ccn3cc(-c4ccccc4)nc3n2)cs1` [Roche-Dataset for PDE10A, Compound 601], the midpoint of inhibition, the IC50, lay at 1130 nM.

For the compound `CN(C)C(=O)c1cnn(C)c1C(=O)Nc1cc2nc(-c3ccccc3)nn2cn1` [Roche-Dataset for PDE10A, Compound 442], the midpoint of inhibition, the IC50, lay at 0.81 nM.

For `O=C(Nc1ccn2nc(-c3ccccc3)nc2c1)c1cc(Cl)nc(NC2CC2)c1` [Roche-Dataset for PDE10A, Compound 101], the IC50 amounted to 6.12 nM.

The compound `CNC(=O)c1cn2cc(-c3ccccc3)nc2cc1NC(=O)c1nc(C2CC2)ccc1Nc1cncnc1` [Roche-Dataset for PDE10A, Compound 184] came in with an IC50 of 0.22 nM.

Take `CCCn1ccc(NC(=O)c2c(C(=O)N3CCC3)cnn2C)n1` [Roche-Dataset for PDE10A, Compound 1116]: the IC50 was found to be 404 nM.

As for `CNC(=O)c1cc(OC)ccc1NC(=O)c1nc(C2CC2)cnc1Nc1cncnc1` [US8703768, 225], half-maximal inhibition (IC50) required 0.48 nM.

Consider `O=C(Nc1ccc2[nH]c(-c3ccccc3)nc2c1)c1nc(C2CC2)ccc1Nc1cncnc1` [Roche-Dataset for PDE10A, Compound 423], for which the IC50 turned out to be 0.24 nM. Against the preceding compound, the IC50 is about 2-fold lower.

Regarding `CNC(=O)c1cc2[nH]c(-c3ccccc3)nc2cc1NC(=O)c1cc(C(C)(C)C)nn1C` [Roche-Dataset for PDE10A, Compound 650], the IC50 stood at 114 nM.

Compound `O=C(Nc1ccn2nc(-c3ccccc3)nc2c1)c1conc1C(=O)NC1CC1` [Roche-Dataset for PDE10A, Compound 437] came in with an IC50 of 150 nM.

In turn, `Cc1ncc(C)n2nc(/C=C/c3nc(N4CCCN4C)nn3C)nc12` [Roche-Dataset for PDE10A, Compound 911] displayed an IC50 of 747 nM.

For the compound `Cc1cc(NC(=O)c2c(C(=O)N3CCC3)cnn2C)nn1C1CCCC1` [Roche-Dataset for PDE10A, Compound 1063], 437 nM corresponded to half-maximal inhibition (IC50).

In the case of `COCCn1ccc(NC(=O)c2c(C(=O)N3CCC3)cnn2C)n1` [Roche-Dataset for PDE10A, Compound 1067], the IC50 stood at 327 nM.

Turning to `Cn1nc(-c2ccccn2)cc1NC(=O)c1cccc2c1OCCO2` [Roche-Dataset for PDE10A, Compound 655], the IC50 is 10000 nM.

On to `O=C(NC1CCS(=O)(=O)CC1)c1nc(C2CC2)cnc1Nc1cncnc1` [Roche-Dataset for PDE10A, Compound 1031], for which the IC50 came out at 10000 nM. This counts as double-digit micromolar.

`O=C(Nc1ccc(-n2ccccc2=O)cc1)c1nc(C2CC2)ccc1Nc1cncnc1` [Roche-Dataset for PDE10A, Compound 545] displayed an IC50 of 20 nM.

Regarding `CCOC(=O)c1cnn(C)c1C(=O)Nc1ccn2nc(N(C)CC)nc2c1` [Roche-Dataset for PDE10A, Compound 502], inhibition was half-maximal at 359 nM (IC50). This IC50 is about 18-fold higher than that of the compound before.

On to `Cc1ncc(Br)c2nc(CCc3nc(N4CCCC4)nn3C)nn12` [Roche-Dataset for PDE10A, Compound 658], for which half-maximal inhibition (IC50) was put at 34 nM.

`Cn1ncc(C(=O)N2CCC2)c1C(=O)Nc1ccn(Cc2cn(-c3ccc(Cl)c(Cl)c3)cn2)n1` [Roche-Dataset for PDE10A, Compound 669] gave an IC50 of 80 nM.

Turning to `COC[C@H]1CCCN1c1nc(CCc2nc3c(C)ncc(C)n3n2)n(Cc2ccc(OC)cc2)n1` [Roche-Dataset for PDE10A, Compound 38], it took 15 nM to reach half-maximal inhibition (IC50).

Take `O=C(NCc1ccncn1)c1nc(C2CC2)cnc1Nc1cncnc1` [Roche-Dataset for PDE10A, Compound 1017]: inhibition was half-maximal at 768 nM (IC50).

In turn, `O=C(NCc1cocn1)c1nc(C2CC2)cnc1Nc1cncnc1` [Roche-Dataset for PDE10A, Compound 1089] had an IC50 of 1860 nM.

Take `Cn1cc(-c2ccccc2)nc1COc1cnc(Br)c(C(=O)Nc2cncnc2)n1` [Roche-Dataset for PDE10A, Compound 716]: the IC50 was 2940 nM. Against the preceding compound, the IC50 is about 1.6-fold higher.

As to `O=C(c1nc(C2CC2)cnc1Nc1cncnc1)N1CCC(Cc2ccccc2)CC1` [Roche-Dataset for PDE10A, Compound 937], the IC50 was 10000 nM.

Take `CCOc1cccc(NC(=O)c2nc(C3CC3)cnc2Nc2cncnc2)c1` [Roche-Dataset for PDE10A, Compound 602]: inhibition was half-maximal at 26 nM (IC50).

Take `Cc1ncc(C)n2nc(/C=C/c3nc(-c4cccn4C)nn3C)nc12` [Roche-Dataset for PDE10A, Compound 440]: the IC50 was determined as 12 nM.

For the compound `Cn1ncc(C(=O)N2CCC2)c1C(=O)Nc1ccn(CCF)n1` [Roche-Dataset for PDE10A, Compound 1082], the IC50 amounted to 551 nM.

On to `COc1c(Cl)ccc2nc(CCc3nc(-c4ccccc4)cn3C)[nH]c(=O)c12` [Roche-Dataset for PDE10A, Compound 123], for which half-maximal inhibition (IC50) was put at 33 nM.

In the case of `Cc1cc(C)n2nc(/C=C/c3nc(Br)nn3C)nc2n1` [Roche-Dataset for PDE10A, Compound 1158], the IC50 came to 10000 nM.

`O=C(Nc1ccn2nc(-c3ccccc3)nc2c1)c1cnc(Cl)c(Cl)c1` [Roche-Dataset for PDE10A, Compound 518] had an IC50 of 1030 nM.
